Measured values from PubChem BioAssay (NCI).
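Assay format: 96-well plates, 48-hour exposure. GI50: concentration for 50% inhibition of growth. TGI: total growth inhibition.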

tested on: HOP-92 NSCLC; assay: DTP human tumour cell line panel, 48 h

Row | SMILES | GI50 | TGI
1 | NC1CCCC[C@H]1N.N[C@@H]1CCCC[C@@H]1N.O=C(P(=O)([O-])[O-])P(=O)([O-])[O-].[Pt+4].[Pt+4] | > 100 µM | > 100 µM
2 | Cc1ccc(Nc2nc(N)c(C(=O)c3ccc(C#N)cc3)s2)cc1 | 0.478 µM | 32.4 µM
3 | CN(C)Cc1c[nH]c2c1C(=O)c1c(c(O)c3ccccc3c1O)C2=O | 13.6 µM | 31.7 µM
4 | CN1CCc2c(Sc3ccc(C(=O)NO)cc3)c3ccccc3n2C1 | 2 µM | 6.88 µM
5 | NC(N)=N/N=C/c1cc(Cl)cc(Cl)c1O |  | > 100 µM
6 | N#CC1Nc2ccccc2[C@@H](O)C1O (stereo not given in full) |  | > 100 µM
7 | c1ccc2c3ccn4cc5c(cc4c-3nc2c1)CCCC5 | 5.04 µM | 48.7 µM
8 | CCN1C(=O)N(CC)C2C1NC(=S)N2/N=C/C=C/c1cccs1 (stereo not given) | 13.4 µM | > 100 µM
9 | COc1ccc(-c2cc(-c3cccn3C)c(C#N)c(N)n2)cc1OC | 5.16 µM | > 100 µM

tested on: OVCAR-4 ovarian; assay: DTP human tumour cell line panel, 48 h

Row | SMILES | GI50 | TGI
10 | NC1CCCC[C@H]1N.N[C@@H]1CCCC[C@@H]1N.O=C(P(=O)([O-])[O-])P(=O)([O-])[O-].[Pt+4].[Pt+4] | > 100 µM | > 100 µM
11 | Cc1ccc(Nc2nc(N)c(C(=O)c3ccc(C#N)cc3)s2)cc1 | 3.86 µM | > 68.4 µM
12 | CN(C)Cc1c[nH]c2c1C(=O)c1c(c(O)c3ccccc3c1O)C2=O | 20.1 µM | 42.6 µM
13 | CN1CCc2c(Sc3ccc(C(=O)NO)cc3)c3ccccc3n2C1 | 1.92 µM | 8.6 µM
14 | NC(N)=N/N=C/c1cc(Cl)cc(Cl)c1O |  | > 100 µM
15 | N#CC1Nc2ccccc2[C@@H](O)C1O (stereo not given in full) |  | > 100 µM
16 | c1ccc2c3ccn4cc5c(cc4c-3nc2c1)CCCC5 | 2.85 µM | 11 µM
17 | CCN1C(=O)N(CC)C2C1NC(=S)N2/N=C/C=C/c1cccs1 (stereo not given) | 1.32 µM | > 100 µM
18 | COc1ccc(-c2cc(-c3cccn3C)c(C#N)c(N)n2)cc1OC | 40.7 µM | > 100 µM

tested on: HL-60(TB) leukemia; assay: DTP human tumour cell line panel, 48 h

Row | SMILES | GI50 | TGI
19 | NC1CCCC[C@H]1N.N[C@@H]1CCCC[C@@H]1N.O=C(P(=O)([O-])[O-])P(=O)([O-])[O-].[Pt+4].[Pt+4] | 18.3 µM | > 100 µM
20 | Cc1ccc(Nc2nc(N)c(C(=O)c3ccc(C#N)cc3)s2)cc1 | 0.288 µM | > 61.7 µM
21 | CN(C)Cc1c[nH]c2c1C(=O)c1c(c(O)c3ccccc3c1O)C2=O | 17.2 µM | 75.7 µM
22 | CN1CCc2c(Sc3ccc(C(=O)NO)cc3)c3ccccc3n2C1 | 2.95 µM | 8.09 µM
23 | NC(N)=N/N=C/c1cc(Cl)cc(Cl)c1O |  | > 100 µM
24 | N#CC1Nc2ccccc2[C@@H](O)C1O (stereo not given in full) |  | > 100 µM
25 | c1ccc2c3ccn4cc5c(cc4c-3nc2c1)CCCC5 | 0.81 µM | 3.81 µM
26 | CCN1C(=O)N(CC)C2C1NC(=S)N2/N=C/C=C/c1cccs1 (stereo not given) | 0.281 µM | 0.857 µM
27 | COc1ccc(-c2cc(-c3cccn3C)c(C#N)c(N)n2)cc1OC | 19.6 µM | > 100 µM

tested on: CAKI-1 renal; assay: DTP human tumour cell line panel, 48 h

Row | SMILES | GI50 | TGI
28 | NC1CCCC[C@H]1N.N[C@@H]1CCCC[C@@H]1N.O=C(P(=O)([O-])[O-])P(=O)([O-])[O-].[Pt+4].[Pt+4] | > 100 µM | > 100 µM
29 | Cc1ccc(Nc2nc(N)c(C(=O)c3ccc(C#N)cc3)s2)cc1 | 0.402 µM | 25 µM
30 | CN(C)Cc1c[nH]c2c1C(=O)c1c(c(O)c3ccccc3c1O)C2=O | 10.8 µM | 23.9 µM
31 | CN1CCc2c(Sc3ccc(C(=O)NO)cc3)c3ccccc3n2C1 | 3.95 µM | 14.5 µM
32 | NC(N)=N/N=C/c1cc(Cl)cc(Cl)c1O |  | > 100 µM
33 | N#CC1Nc2ccccc2[C@@H](O)C1O (stereo not given in full) |  | > 100 µM
34 | c1ccc2c3ccn4cc5c(cc4c-3nc2c1)CCCC5 | 34.9 µM | > 100 µM
35 | CCN1C(=O)N(CC)C2C1NC(=S)N2/N=C/C=C/c1cccs1 (stereo not given) | 0.248 µM | > 100 µM
36 | COc1ccc(-c2cc(-c3cccn3C)c(C#N)c(N)n2)cc1OC | > 100 µM | > 100 µM

tested on: RXF 393 renal; assay: DTP human tumour cell line panel, 48 h

Row | SMILES | GI50 | TGI
37 | NC1CCCC[C@H]1N.N[C@@H]1CCCC[C@@H]1N.O=C(P(=O)([O-])[O-])P(=O)([O-])[O-].[Pt+4].[Pt+4] | > 100 µM | > 100 µM
38 | Cc1ccc(Nc2nc(N)c(C(=O)c3ccc(C#N)cc3)s2)cc1 | 0.398 µM | 7.44 µM
39 | CN(C)Cc1c[nH]c2c1C(=O)c1c(c(O)c3ccccc3c1O)C2=O | 9.48 µM | 25.5 µM
40 | CN1CCc2c(Sc3ccc(C(=O)NO)cc3)c3ccccc3n2C1 | 2.37 µM | 9.51 µM
41 | NC(N)=N/N=C/c1cc(Cl)cc(Cl)c1O |  | > 100 µM
42 | N#CC1Nc2ccccc2[C@@H](O)C1O (stereo not given in full) |  | > 100 µM
43 | c1ccc2c3ccn4cc5c(cc4c-3nc2c1)CCCC5 | 5.62 µM | 27 µM
44 | CCN1C(=O)N(CC)C2C1NC(=S)N2/N=C/C=C/c1cccs1 (stereo not given) | 0.182 µM | > 100 µM
45 | COc1ccc(-c2cc(-c3cccn3C)c(C#N)c(N)n2)cc1OC | > 100 µM | > 100 µM

tested on: HCT-15 colon; assay: DTP human tumour cell line panel, 48 h

Row | SMILES | GI50 | TGI
46 | NC1CCCC[C@H]1N.N[C@@H]1CCCC[C@@H]1N.O=C(P(=O)([O-])[O-])P(=O)([O-])[O-].[Pt+4].[Pt+4] | 63.8 µM | > 100 µM
47 | Cc1ccc(Nc2nc(N)c(C(=O)c3ccc(C#N)cc3)s2)cc1 | 0.202 µM | > 100 µM
48 | CN(C)Cc1c[nH]c2c1C(=O)c1c(c(O)c3ccccc3c1O)C2=O | 5.02 µM | 16.2 µM
49 | CN1CCc2c(Sc3ccc(C(=O)NO)cc3)c3ccccc3n2C1 | 3.62 µM | 13.4 µM
50 | NC(N)=N/N=C/c1cc(Cl)cc(Cl)c1O |  | 58.9 µM
51 | N#CC1Nc2ccccc2[C@@H](O)C1O (stereo not given in full) |  | > 100 µM
52 | c1ccc2c3ccn4cc5c(cc4c-3nc2c1)CCCC5 | 24.1 µM | > 100 µM
53 | CCN1C(=O)N(CC)C2C1NC(=S)N2/N=C/C=C/c1cccs1 (stereo not given) | 0.307 µM | > 100 µM
54 | COc1ccc(-c2cc(-c3cccn3C)c(C#N)c(N)n2)cc1OC | > 100 µM | > 100 µM

tested on: UACC-62 melanoma; assay: DTP human tumour cell line panel, 48 h

Row | SMILES | GI50 | TGI
55 | NC1CCCC[C@H]1N.N[C@@H]1CCCC[C@@H]1N.O=C(P(=O)([O-])[O-])P(=O)([O-])[O-].[Pt+4].[Pt+4] | > 100 µM | > 100 µM
56 | Cc1ccc(Nc2nc(N)c(C(=O)c3ccc(C#N)cc3)s2)cc1 | 0.416 µM | > 100 µM
57 | CN(C)Cc1c[nH]c2c1C(=O)c1c(c(O)c3ccccc3c1O)C2=O | 16.3 µM | 30.1 µM
58 | CN1CCc2c(Sc3ccc(C(=O)NO)cc3)c3ccccc3n2C1 | 1.62 µM | 3.65 µM
59 | NC(N)=N/N=C/c1cc(Cl)cc(Cl)c1O |  | > 100 µM
60 | N#CC1Nc2ccccc2[C@@H](O)C1O (stereo not given in full) |  | > 100 µM
61 | c1ccc2c3ccn4cc5c(cc4c-3nc2c1)CCCC5 | 3.25 µM | 14.4 µM
62 | CCN1C(=O)N(CC)C2C1NC(=S)N2/N=C/C=C/c1cccs1 (stereo not given) | 0.45 µM | > 100 µM
63 | COc1ccc(-c2cc(-c3cccn3C)c(C#N)c(N)n2)cc1OC | 86.3 µM | > 100 µM

tested on: K-562 leukemia; assay: DTP human tumour cell line panel, 48 h

Row | SMILES | GI50 | TGI
64 | NC1CCCC[C@H]1N.N[C@@H]1CCCC[C@@H]1N.O=C(P(=O)([O-])[O-])P(=O)([O-])[O-].[Pt+4].[Pt+4] | 78.2 µM | > 100 µM
65 | Cc1ccc(Nc2nc(N)c(C(=O)c3ccc(C#N)cc3)s2)cc1 | 0.0685 µM | > 100 µM
66 | CN(C)Cc1c[nH]c2c1C(=O)c1c(c(O)c3ccccc3c1O)C2=O | 2.24 µM | > 100 µM
67 | CN1CCc2c(Sc3ccc(C(=O)NO)cc3)c3ccccc3n2C1 | 2.91 µM | > 33 µM
68 | NC(N)=N/N=C/c1cc(Cl)cc(Cl)c1O |  | > 100 µM
69 | N#CC1Nc2ccccc2[C@@H](O)C1O (stereo not given in full) |  | > 100 µM
70 | c1ccc2c3ccn4cc5c(cc4c-3nc2c1)CCCC5 | 1.95 µM | 12.6 µM
71 | CCN1C(=O)N(CC)C2C1NC(=S)N2/N=C/C=C/c1cccs1 (stereo not given) | 0.263 µM | > 100 µM
72 | COc1ccc(-c2cc(-c3cccn3C)c(C#N)c(N)n2)cc1OC | 55.6 µM | > 100 µM

tested on: HCT-116 colon; assay: DTP human tumour cell line panel, 48 h

Row | SMILES | GI50 | TGI
73 | NC1CCCC[C@H]1N.N[C@@H]1CCCC[C@@H]1N.O=C(P(=O)([O-])[O-])P(=O)([O-])[O-].[Pt+4].[Pt+4] | 83.8 µM | > 100 µM
74 | Cc1ccc(Nc2nc(N)c(C(=O)c3ccc(C#N)cc3)s2)cc1 | 0.241 µM | 6.74 µM
75 | CN(C)Cc1c[nH]c2c1C(=O)c1c(c(O)c3ccccc3c1O)C2=O | 8.17 µM | 34.8 µM
76 | CN1CCc2c(Sc3ccc(C(=O)NO)cc3)c3ccccc3n2C1 | 1.7 µM | 3.97 µM
77 | NC(N)=N/N=C/c1cc(Cl)cc(Cl)c1O |  | > 100 µM
78 | N#CC1Nc2ccccc2[C@@H](O)C1O (stereo not given in full) |  | > 100 µM
79 | c1ccc2c3ccn4cc5c(cc4c-3nc2c1)CCCC5 | 2.72 µM | 8.94 µM
80 | CCN1C(=O)N(CC)C2C1NC(=S)N2/N=C/C=C/c1cccs1 (stereo not given) | 0.404 µM | > 100 µM
81 | COc1ccc(-c2cc(-c3cccn3C)c(C#N)c(N)n2)cc1OC | 91.1 µM | > 100 µM

tested on: OVCAR-8 ovarian; assay: DTP human tumour cell line panel, 48 h

Row | SMILES | GI50 | TGI
82 | NC1CCCC[C@H]1N.N[C@@H]1CCCC[C@@H]1N.O=C(P(=O)([O-])[O-])P(=O)([O-])[O-].[Pt+4].[Pt+4] | > 100 µM | > 100 µM
83 | Cc1ccc(Nc2nc(N)c(C(=O)c3ccc(C#N)cc3)s2)cc1 | 0.644 µM | > 100 µM
84 | CN(C)Cc1c[nH]c2c1C(=O)c1c(c(O)c3ccccc3c1O)C2=O | 8.56 µM | 29.8 µM
85 | CN1CCc2c(Sc3ccc(C(=O)NO)cc3)c3ccccc3n2C1 | 1.69 µM | 5.42 µM
86 | NC(N)=N/N=C/c1cc(Cl)cc(Cl)c1O |  | > 100 µM
87 | N#CC1Nc2ccccc2[C@@H](O)C1O (stereo not given in full) |  | > 100 µM
88 | c1ccc2c3ccn4cc5c(cc4c-3nc2c1)CCCC5 | 3.62 µM | 51.2 µM
89 | CCN1C(=O)N(CC)C2C1NC(=S)N2/N=C/C=C/c1cccs1 (stereo not given) | 0.548 µM | > 100 µM
90 | COc1ccc(-c2cc(-c3cccn3C)c(C#N)c(N)n2)cc1OC | > 100 µM | > 100 µM
